The values that follow come from patent US10413583B2, “Synthetic substrates for enzymes that catalyze reactions of modified cysteines and related methods” (The University of Chicago, priority 2016, dated 2019).

In assay [1] the test system is HEPG2 cells. Briefly: Fluorescence imaging of RDP-1 with HEPG2 cells (PalmB, palmitate). It counts as cell-based, human. Conditions: 40 μM PalmB 30 min, 1 μM RDP-1. How it is done:
HEPG2 were plated with […] of DMEM (Gibco, Gaithersburg, Md., United States of America; High Glucose, Glutamax, 10% FBS) a four well chambered imaging dish (D35C4-20-1.5-N, Cellvis, Mountain View, Calif., United States of America) which were precoated with 4 μg Poly-D-lysine (30-70 KDa, Alfa Aesar, Haverhill, Mass., United States of America) for 2 h at room temperature or overnight at 4° C. and grown to ca. 80% confluence prior to imaging. 30 min before the addition of the RDP, the cell culture media was removed and cells were washed with 500 μL of serum-free DMEM (Gibco, Gaithersburg, Md., United States of America; High Glucose, Glutamax, no FBS). The media was then replaced with 500 μL of serum-free DMEM containing 100 nM Mitotracker Deep Red (Thermo Fisher Scientific, Waltham, Mass., United States of America) to assist in focusing and processing) and either 0.1% DMSO carrier as a control or Palm B in DMSO and incubated for 30 min at 37° C. and 5% CO2. The media was removed, the cells were washed with 500 μL of Live Cell Imaging Solution (Thermo Fisher Scientific, Waltham, Mass., United States of America), and 500 μL of 1 μM RDP-1 along with the Palm B or DMSO as control in Live Cell Imaging Solution was added to each well. […]

Assay [2] concerns the target T1, APT1 (Homo sapiens, UniProt O75608).
T1 construct: His-tag; made in house; host or cells: E. coli ROSETTA DE3
The assay can be described thus: Enzyme kinetics analysis of DPP-5 with APT1. It is filed as biochemical. Conditions: APT1 50 nM. The protocol: 150 μL of 1 M DTT in HEPES buffer was added to different concentrations of 150 μL DPP-5 and then the stable fluorescence intensities of totally deacylated product were measured by the methods described above. Fluorescence intensity of per molar deacylated-product was then calculated by linear least-squares fitting of plots of fluorescence vs. concentration. For Michaelis-Menten constant, in vitro kinetics curves were obtained for different final concentrations of DPP-5 in HEPES with 50 nM APT1 or APT2. The fluorescence intensities measured were then normalized to the concentrations of product by fluorescence-intensity-permolar-product. A Lineweaver-Burk plot was used to calculate the Michaelis constant, KM, and the maximum velocity, Vmax, which is proportional to kcat by concentration of APT1 or APT2. All fits have R^2 values of >0.99.

T1 sequence (O75608 whole entry): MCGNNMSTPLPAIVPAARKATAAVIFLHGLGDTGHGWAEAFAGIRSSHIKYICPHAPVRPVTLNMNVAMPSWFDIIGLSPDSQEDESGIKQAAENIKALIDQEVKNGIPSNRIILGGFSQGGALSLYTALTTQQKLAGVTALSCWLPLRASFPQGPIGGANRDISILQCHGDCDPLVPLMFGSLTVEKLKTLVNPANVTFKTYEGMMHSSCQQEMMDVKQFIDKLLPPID

For the compound `CCCCCCCCCC[C@@H]1C(=O)O[C@H]1CCc1ccc(OC)c(OC)c1` [PalmB, palmostatin B], the “decrease in deacylation of RDP-1” value in assay [1] was “about 60%”.

A word on the Km: it is the concentration of substrate that gives half-maximal velocity. With `CCCCCCCCCCCCCCCC(=O)SC[C@@H](C(=O)NC)N(C)C(=O)Oc1ccc2c(c1)Oc1cc(N3CCN(C(=O)CCC(=O)O)CC3)ccc1C21OC(=O)c2ccccc21` (stereo partly drawn) [DPP-5], the Kcat in assay [2] was found to be 0.044 s⁻¹. The Km in assay [2] (Lineweaver-Burk) amounted to 1.6 µM.
